Laboratory results from ChEMBL document CHEMBL4118122, “Identification and biological evaluation of thiazole-based inverse agonists of RORγt” (Bioorg Med Chem Lett, 2018).

Experiments:
Endothelin-1 receptor = Endothelin-1 receptor (Homo sapiens, UniProt P25101); test: Displacement of [125I]-endothelin-1 from human recombinant ETA receptor after 120 mins by scintillation counting analysis
Cytochrome P450 2C19 = Cytochrome P450 2C19 (Homo sapiens, UniProt P33261); test: Inhibition of CYP2C19 (unknown origin); format: ADME
[1] = biological target: Cholecystokinin receptor type A (Homo sapiens) (UniProt P32238); test: Displacement of [125I]CCK-8s from human recombinant CCK1 receptor at 1 uM after 60 mins by scintillation counting analysis relative to control
[2] = biological target: T1, Nuclear receptor ROR-gamma (Homo sapiens, UniProt P51449); test: Inverse agonist activity at RORgammat in human CD4 positive T cells assessed as inhibition of IL17A production in human Th17 cells after 1 hr; format: cell-based
T1 sequence (P51449 whole entry): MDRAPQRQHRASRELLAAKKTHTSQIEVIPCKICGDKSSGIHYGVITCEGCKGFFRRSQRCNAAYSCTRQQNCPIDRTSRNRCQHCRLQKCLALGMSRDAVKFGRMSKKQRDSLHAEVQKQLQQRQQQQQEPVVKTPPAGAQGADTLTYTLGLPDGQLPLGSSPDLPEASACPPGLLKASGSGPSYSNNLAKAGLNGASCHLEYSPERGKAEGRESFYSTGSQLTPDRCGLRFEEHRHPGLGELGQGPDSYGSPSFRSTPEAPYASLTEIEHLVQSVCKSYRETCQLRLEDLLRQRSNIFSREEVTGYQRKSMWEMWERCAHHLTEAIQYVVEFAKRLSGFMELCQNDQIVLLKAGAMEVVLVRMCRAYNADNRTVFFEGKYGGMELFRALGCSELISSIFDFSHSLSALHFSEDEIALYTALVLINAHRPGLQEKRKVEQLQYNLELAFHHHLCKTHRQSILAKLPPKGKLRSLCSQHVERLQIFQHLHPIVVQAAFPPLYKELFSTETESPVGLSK

[3] = biological target: Serine/threonine-protein kinase pim-2 (Homo sapiens) (UniProt Q9P1W9); test: Inhibition of recombinant full length GST-tagged human PIM2 expressed in baculovirus expression system at 10 uM in presence of ATP relative to control
[4] = biological target: Ribosomal protein S6 kinase alpha-2 (Homo sapiens) (UniProt Q15349); test: Inhibition of recombinant full length GST-tagged human RSK3 expressed in insect cells at 10 uM in presence of ATP relative to control
[5] = biological target: Aurora kinase A (Homo sapiens) (UniProt O14965); test: Inhibition of recombinant full length His-tagged human Aurora A expressed in baculovirus expression system at 10 uM in presence of ATP relative to control
[6] = biological target: Galanin receptor type 2 (Homo sapiens) (UniProt O43603); test: Displacement of [125I]-endothelin-1 from human recombinant GAL2 receptor at 1 uM after 120 mins by scintillation counting analysis relative to control
[7] = biological target: Neuropeptide Y receptor type 1 (Homo sapiens, UniProt P25929); test: Displacement of [125I]peptide YY from human Y1 receptor after 120 mins by scintillation counting analysis
Chain of Neuropeptide Y receptor type 1 (P25929 whole entry): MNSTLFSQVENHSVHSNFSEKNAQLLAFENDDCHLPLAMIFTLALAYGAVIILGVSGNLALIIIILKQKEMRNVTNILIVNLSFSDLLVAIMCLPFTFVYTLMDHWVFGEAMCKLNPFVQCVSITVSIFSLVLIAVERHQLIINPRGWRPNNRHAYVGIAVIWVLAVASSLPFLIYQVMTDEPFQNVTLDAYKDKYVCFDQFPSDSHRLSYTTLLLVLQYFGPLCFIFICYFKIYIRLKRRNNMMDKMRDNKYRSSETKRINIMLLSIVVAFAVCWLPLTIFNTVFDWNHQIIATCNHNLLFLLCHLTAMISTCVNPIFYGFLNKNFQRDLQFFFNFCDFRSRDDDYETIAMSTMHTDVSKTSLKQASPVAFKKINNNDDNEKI

[8] = Thermodynamic solubility of the compound in 30 mM phosphate buffer at 10 mM at pH 2 after 2 to 5 days by UV-HPLC analysis; format: physicochemical; settings: read-out: Therm_solubility
[9] = biological target: Serine/threonine-protein kinase Chk1 (Homo sapiens) (UniProt O14757); test: Inhibition of recombinant full length His-tagged human CHK1 expressed in baculovirus expression system at 10 uM in presence of ATP relative to control
Chain of Serine/threonine-protein kinase Chk1 (Homo sapiens) (O14757 whole entry, the tested form may be a part): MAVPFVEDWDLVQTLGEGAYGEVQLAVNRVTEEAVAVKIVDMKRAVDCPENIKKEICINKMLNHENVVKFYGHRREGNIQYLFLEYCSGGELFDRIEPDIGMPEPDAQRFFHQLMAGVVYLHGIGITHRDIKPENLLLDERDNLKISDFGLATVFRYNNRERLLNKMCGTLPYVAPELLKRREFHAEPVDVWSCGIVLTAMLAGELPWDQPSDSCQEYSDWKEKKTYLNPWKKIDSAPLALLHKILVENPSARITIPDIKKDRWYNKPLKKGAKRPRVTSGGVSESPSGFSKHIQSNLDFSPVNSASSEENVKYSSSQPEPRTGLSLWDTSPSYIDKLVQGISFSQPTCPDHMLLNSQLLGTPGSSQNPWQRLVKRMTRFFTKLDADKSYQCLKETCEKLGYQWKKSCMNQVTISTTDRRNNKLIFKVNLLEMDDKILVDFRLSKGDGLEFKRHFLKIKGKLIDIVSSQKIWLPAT

[10] = biological target: Tyrosine-protein kinase Blk (Homo sapiens) (UniProt P51451); test: Inhibition of recombinant full length His-tagged human Blk cytoplasmic domain expressed in Baculovirus expression system at 10 uM in presence of ATP relative to control
Vasopressin V1a receptor = Vasopressin V1a receptor (Homo sapiens, UniProt P37288); test: Displacement of [3H]AVP from human recombinant V1a receptor at 1 uM after 60 mins by scintillation counting analysis relative to control
Chain of Vasopressin V1a receptor (P37288 whole entry, looked up): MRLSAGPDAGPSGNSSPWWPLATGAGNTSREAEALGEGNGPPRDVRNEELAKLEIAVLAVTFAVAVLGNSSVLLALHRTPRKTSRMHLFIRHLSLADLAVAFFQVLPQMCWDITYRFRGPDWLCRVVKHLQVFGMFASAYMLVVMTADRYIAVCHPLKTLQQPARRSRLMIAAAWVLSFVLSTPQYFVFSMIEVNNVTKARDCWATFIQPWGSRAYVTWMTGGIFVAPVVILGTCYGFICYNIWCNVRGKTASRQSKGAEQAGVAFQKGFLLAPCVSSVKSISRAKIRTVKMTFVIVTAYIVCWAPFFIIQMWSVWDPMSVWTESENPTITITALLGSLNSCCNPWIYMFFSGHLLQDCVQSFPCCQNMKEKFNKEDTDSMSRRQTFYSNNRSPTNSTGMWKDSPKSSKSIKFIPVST

[11] = biological target: Muscarinic acetylcholine receptor M1 (Homo sapiens, UniProt P11229); test: Displacement of […] from human recombinant M1 receptor after 60 mins by scintillation counting analysis
[12] = Half life in rat microsomes; format: ADME, Microsome
[13] = biological target: Kappa-type opioid receptor (Homo sapiens, UniProt P41145); test: Displacement of [3H]U69593 from human kappa receptor at 1 uM after 60 mins by scintillation counting analysis relative to control
Chain of Kappa-type opioid receptor (P41145 whole entry): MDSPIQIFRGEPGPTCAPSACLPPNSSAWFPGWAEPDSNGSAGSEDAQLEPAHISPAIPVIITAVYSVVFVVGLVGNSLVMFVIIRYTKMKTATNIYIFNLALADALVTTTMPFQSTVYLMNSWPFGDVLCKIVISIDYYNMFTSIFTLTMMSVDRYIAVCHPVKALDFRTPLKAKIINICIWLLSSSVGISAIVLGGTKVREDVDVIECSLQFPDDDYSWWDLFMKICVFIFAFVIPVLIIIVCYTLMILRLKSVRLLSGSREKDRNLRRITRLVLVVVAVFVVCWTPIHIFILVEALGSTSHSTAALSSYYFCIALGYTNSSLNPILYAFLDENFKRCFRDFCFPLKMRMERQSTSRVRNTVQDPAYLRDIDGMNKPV

Histamine H2 receptor = Histamine H2 receptor (Homo sapiens, UniProt P25021); test: Displacement of [125I]APT from human recombinant histamine H2 receptor after 120 mins by scintillation counting analysis
Chain of Histamine H2 receptor (P25021 whole entry): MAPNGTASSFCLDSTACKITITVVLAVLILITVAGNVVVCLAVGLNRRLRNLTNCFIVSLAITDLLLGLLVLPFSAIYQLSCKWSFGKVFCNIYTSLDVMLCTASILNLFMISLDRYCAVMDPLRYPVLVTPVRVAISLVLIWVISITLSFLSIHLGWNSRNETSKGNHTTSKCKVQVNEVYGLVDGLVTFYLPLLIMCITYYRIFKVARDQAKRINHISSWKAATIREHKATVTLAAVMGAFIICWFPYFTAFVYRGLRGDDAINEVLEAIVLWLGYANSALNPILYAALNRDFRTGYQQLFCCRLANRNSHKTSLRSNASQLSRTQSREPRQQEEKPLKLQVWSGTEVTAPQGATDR

Rattus norvegicus [14] = organism: Rattus norvegicus; test: Displacement of [125I]alpha-dendrotoxin from rat brain voltage-gated K channel at 1 uM after 60 mins by scintillation counting analysis relative to control
[15] = biological target: Muscarinic acetylcholine receptor M1 (Homo sapiens) (UniProt P11229); test: Displacement of […] from human recombinant M1 receptor at 1 uM after 60 mins by scintillation counting analysis relative to control
Adenosine receptor A2a = Adenosine receptor A2a (Homo sapiens, UniProt P29274); test: Displacement of [3H]-CGS 21680 from human recombinant adenosine A2A receptor after 120 mins by scintillation counting analysis
Chain of Adenosine receptor A2a (P29274 whole entry, the tested form may be a part): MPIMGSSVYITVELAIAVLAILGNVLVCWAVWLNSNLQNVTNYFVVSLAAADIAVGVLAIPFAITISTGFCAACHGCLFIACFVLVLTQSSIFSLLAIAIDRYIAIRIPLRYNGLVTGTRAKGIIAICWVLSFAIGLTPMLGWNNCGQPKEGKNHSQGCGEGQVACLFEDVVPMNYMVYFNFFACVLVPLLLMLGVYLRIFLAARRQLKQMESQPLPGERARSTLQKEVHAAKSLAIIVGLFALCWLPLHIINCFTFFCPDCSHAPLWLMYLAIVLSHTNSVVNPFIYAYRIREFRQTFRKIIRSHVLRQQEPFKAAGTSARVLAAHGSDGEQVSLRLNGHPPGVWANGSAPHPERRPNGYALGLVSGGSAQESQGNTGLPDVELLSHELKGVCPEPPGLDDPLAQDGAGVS

[16] = biological target: Insulin receptor (Homo sapiens) (UniProt P06213); test: Inhibition of recombinant His-tagged human InsR (1011 to 1382 residues) expressed in baculovirus expression system at 10 uM in presence of ATP relative to control
Chain of Insulin receptor (Homo sapiens) (P06213 28-758 limits assumed): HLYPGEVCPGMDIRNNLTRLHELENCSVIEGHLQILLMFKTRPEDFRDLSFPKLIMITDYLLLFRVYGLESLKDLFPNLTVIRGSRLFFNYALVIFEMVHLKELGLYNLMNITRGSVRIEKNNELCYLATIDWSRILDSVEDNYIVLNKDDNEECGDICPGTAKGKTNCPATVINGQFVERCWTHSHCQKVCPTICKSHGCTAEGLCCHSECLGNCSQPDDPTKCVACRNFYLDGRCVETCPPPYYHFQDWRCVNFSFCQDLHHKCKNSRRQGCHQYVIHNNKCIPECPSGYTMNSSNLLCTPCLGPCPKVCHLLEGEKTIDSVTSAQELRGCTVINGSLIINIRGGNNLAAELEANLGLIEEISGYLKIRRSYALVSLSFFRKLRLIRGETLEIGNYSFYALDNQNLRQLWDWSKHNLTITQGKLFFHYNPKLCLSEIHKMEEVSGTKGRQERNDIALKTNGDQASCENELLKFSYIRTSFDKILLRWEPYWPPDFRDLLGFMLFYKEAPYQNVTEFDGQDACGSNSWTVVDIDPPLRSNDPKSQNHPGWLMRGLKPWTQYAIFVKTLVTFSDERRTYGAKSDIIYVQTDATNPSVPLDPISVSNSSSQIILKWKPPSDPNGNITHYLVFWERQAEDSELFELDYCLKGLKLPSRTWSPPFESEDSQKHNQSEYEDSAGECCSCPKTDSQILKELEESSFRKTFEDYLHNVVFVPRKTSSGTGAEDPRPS
Chain of Insulin receptor (Homo sapiens) (P06213 763-1382 limits assumed): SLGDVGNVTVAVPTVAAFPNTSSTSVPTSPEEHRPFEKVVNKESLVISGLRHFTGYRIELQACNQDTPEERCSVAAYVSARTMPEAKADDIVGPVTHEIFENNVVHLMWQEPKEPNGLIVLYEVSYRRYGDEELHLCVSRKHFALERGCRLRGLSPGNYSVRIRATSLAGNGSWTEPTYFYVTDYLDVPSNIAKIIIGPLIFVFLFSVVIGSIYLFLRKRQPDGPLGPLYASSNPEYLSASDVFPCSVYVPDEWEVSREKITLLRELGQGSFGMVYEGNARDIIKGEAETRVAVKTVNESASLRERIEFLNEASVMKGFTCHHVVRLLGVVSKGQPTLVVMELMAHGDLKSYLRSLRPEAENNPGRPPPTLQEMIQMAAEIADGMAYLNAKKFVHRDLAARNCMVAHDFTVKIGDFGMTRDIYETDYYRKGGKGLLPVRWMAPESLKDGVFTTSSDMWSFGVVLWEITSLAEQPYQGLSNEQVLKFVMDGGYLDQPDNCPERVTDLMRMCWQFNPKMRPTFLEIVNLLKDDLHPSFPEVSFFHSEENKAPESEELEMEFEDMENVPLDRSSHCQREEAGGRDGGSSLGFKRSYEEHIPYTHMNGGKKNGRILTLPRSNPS

Nociceptin receptor = Nociceptin receptor (Homo sapiens, UniProt P41146); test: Displacement of [3H]nociceptin from human recombinant NOP receptor at 1 uM after 60 mins by scintillation counting analysis relative to control
[17] = biological target: 5-hydroxytryptamine receptor 3A (Homo sapiens, UniProt P46098); test: Displacement of [3H]BRL 43694 from human recombinant 5-HT3 receptor after 120 mins by scintillation counting analysis
Cytochrome P450 2D6 = Cytochrome P450 2D6 (Homo sapiens, UniProt P10635); test: Inhibition of CYP2D6 (unknown origin); format: ADME
Rattus norvegicus [18] = organism: Rattus norvegicus; test: Displacement of [3H]batrachotoxinin from rat brain voltage gated sodium ion channel site 2 at 10 uM after 60 mins by scintillation counting analysis relative to control
[19] = biological target: Cholecystokinin receptor type A (Homo sapiens, UniProt P32238); test: Displacement of [125I]CCK-8s from human recombinant CCK1 receptor after 60 mins by scintillation counting analysis
[20] = biological target: Muscarinic acetylcholine receptor M2 (Homo sapiens) (UniProt P08172); test: Displacement of [3H]AF-DX 384 from human recombinant M2 receptor at 1 uM after 60 mins by scintillation counting analysis relative to control
[21] = biological target: 5-hydroxytryptamine receptor 2B (Homo sapiens, UniProt P41595); test: Displacement of [125I]+/-DOI from human recombinant 5-HT2B receptor at 10 uM after 60 mins by scintillation counting analysis relative to control
Chain of 5-hydroxytryptamine receptor 2B (P41595 whole entry): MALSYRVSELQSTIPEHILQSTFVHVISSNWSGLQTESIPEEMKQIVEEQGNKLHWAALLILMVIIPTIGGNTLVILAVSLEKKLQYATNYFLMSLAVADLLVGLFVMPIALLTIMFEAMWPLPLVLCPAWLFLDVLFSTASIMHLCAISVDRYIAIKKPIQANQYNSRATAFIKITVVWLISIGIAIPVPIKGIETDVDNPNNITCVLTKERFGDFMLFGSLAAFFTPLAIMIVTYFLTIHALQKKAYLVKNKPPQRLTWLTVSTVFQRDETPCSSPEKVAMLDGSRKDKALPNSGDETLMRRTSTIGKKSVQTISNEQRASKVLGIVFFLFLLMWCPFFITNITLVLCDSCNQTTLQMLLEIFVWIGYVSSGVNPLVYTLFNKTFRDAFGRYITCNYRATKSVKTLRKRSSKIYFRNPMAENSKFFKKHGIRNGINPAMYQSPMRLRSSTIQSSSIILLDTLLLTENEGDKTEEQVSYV

[22] = Initial plasma concentration in Sprague-Dawley rat at 1 mg/kg, iv; format: ADME, organism-based

Chain of Endothelin-1 receptor (P25101 whole entry): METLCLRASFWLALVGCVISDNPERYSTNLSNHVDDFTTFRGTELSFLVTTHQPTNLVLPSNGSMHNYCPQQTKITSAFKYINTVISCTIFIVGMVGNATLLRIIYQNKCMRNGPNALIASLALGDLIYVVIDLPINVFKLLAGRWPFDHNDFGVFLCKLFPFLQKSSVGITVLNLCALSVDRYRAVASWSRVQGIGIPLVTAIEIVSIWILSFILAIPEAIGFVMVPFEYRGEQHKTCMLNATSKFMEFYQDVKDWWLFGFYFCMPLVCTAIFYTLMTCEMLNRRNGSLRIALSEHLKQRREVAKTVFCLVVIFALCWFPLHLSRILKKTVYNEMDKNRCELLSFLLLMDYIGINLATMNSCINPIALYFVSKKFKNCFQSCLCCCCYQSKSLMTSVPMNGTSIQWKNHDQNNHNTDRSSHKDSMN

CC(C)(C)NS(=O)(=O)c1ccc(-c2sc(C(=O)N[C@H]3C[C@H](C(=O)O)C3)nc2CC2CCCCC2)c2ccccc12
IC50 (Endothelin-1 receptor): 0.023 nM | INH (Cytochrome P450 2C19): > 10 µM | inhibition [1]: < 10% | EC50 [2]: 2.8 nM | inhibition [3]: 4% | inhibition [4]: -4% | inhibition [5]: -5% | inhibition [6]: < 10% | IC50 [7]: 0.13 nM | solubility thermodynamic at 10000 µM [8]: < 1 µM | inhibition [9]: 1% | inhibition [10]: -5% | inhibition (Vasopressin V1a receptor): < 10% | IC50 [11]: 18 nM | half-life [12]: 47 min | inhibition [13]: < 10% | IC50 (Histamine H2 receptor): 142 nM | inhibition (Rattus norvegicus [14]): < 10% | inhibition [15]: < 10% | IC50 (Adenosine receptor A2a): 9.2 nM | inhibition [16]: -4% | inhibition (Nociceptin receptor): < 10% | IC50 [17]: 4.9 nM | INH (Cytochrome P450 2D6): > 10 µM | inhibition (Rattus norvegicus [18]): 11% | IC50 [19]: 0.12 nM | inhibition [20]: < 10% | inhibition [21]: < 10% | C0 [22]: 4430 ng/mL
